From patent EP0416804B1, “External preparation containing amusulosin” (YAMANOUCHI PHARMACEUTICAL CO., LTD., priority 1989, dated 1991)
In brackets after ≈: the same amount, converted by molar mass. Like-named read-outs stand apart in the source and are kept apart here.

How the values were obtained:
[1] = Solubility of AB-250 in water, ethanol and aqueous alcohol; type: physicochemical
From the text: 1. Data on the solubility increasing effect of aqueous alcohol:
The solubility of AB-250 in water of pH 5-7 was 0.4% and that in ethanol was 0.03%.
It is, thus, evident that the use of aqueous ethanol results in a remarkable increase in the solubility of the active compound.

ai-receptor = details: compared with prazosin hydrochloride; cited from earlier work
[2] = test system: rabbit prostate, urethra and vesical triangle (trigone of the bladder); details: rabbit tissues; cited from earlier work
[3] = test system: human urethra and vesical triangle; details: human tissues; cited from earlier work

Row | SMILES | solubility ([1]; 50% ethanol, organic solvent or mixture, Michaelis buffer containing 50% of ethanol, pH 8, read-out: solubility in aqueous ethanol containing 50% of ethanol) [mg/mL] | solubility ([1]; 60% ethanol, organic solvent or mixture, Michaelis buffer containing 60% of ethanol, pH 7, read-out: solubility in aqueous ethanol containing 60% of ethanol) [mg/mL] | greater solubility in aqueous alcohol ([1]; aqueous alcohol compared with water and pure alcohol) | solubility ([1]; ethanol, organic solvent or mixture, read-out: solubility in ethanol) [mg/mL] | solubility increasing effect with isopropyl alcohol in lieu of ethanol ([1]; isopropyl alcohol used in lieu of ethanol) | solubility ([1]; water of pH 5-7, read-out: solubility in water) [mg/mL] | ai-receptor blocking activity (ai-receptor) | contraction of the rabbit prostate, urethra and vesical triangle [2] | contraction of the human urethra and vesical triangle [3]
1 | CCOc1ccccc1OCCNC(C)Cc1ccc(OC)c(S(N)(=O)=O)c1 (stereo not drawn) [AB-250, 5-[2-[[2-(o-Ethoxyphenoxy)-ethyl]amino]propyl]-2-methoxybenzenesulfonamide] | 51 (≈ 125 mM) | 48 (≈ 117 mM) | no less than 10 fold | 0.3 (≈ 0.734 mM) | More or less the same effect | 4 (≈ 9.79 mM) | – | – | –
2 | CCOc1ccccc1OCCNC(C)Cc1ccc(OC)c(S(N)(=O)=O)c1 (stereo not drawn) [amusulosin, 5-[2-[[2-(o-Ethoxyphenoxy)-ethyl]amino]propyl]-2-methoxybenzenesulfonamide] | – | – | – | – | – | – | higher than that of prazosin hydrochloride | reduces the contraction | reduces the contraction
